Measured values from the kinase profiling compilation of Christmann-Franck et al. (2016).

Experiments:
BRSK2 (human) = BRSK2 (human) (UniProt Q8IWQ3)
CSK (human) = CSK (human) (UniProt P41240)
CSNK1D (human) = CSNK1D (human) (UniProt P48730)
CSNK2A1 (human) = CSNK2A1 (human) (UniProt P68400)
CaMK1 (human) = CaMK1 (human) (UniProt Q14012)
DYRK1A (human) = DYRK1A (human) (UniProt Q13627)
EEF2K (human) = EEF2K (human) (UniProt O00418)
EPHA2 (human) = EPHA2 (human) (UniProt P29317)
INSRR (human) = INSRR (human) (UniProt P14616)
LCK (mouse) = details: accession and sequence are those of the human protein
MAPK1 (human) = MAPK1 (human) (UniProt P28482)
MAPK13 (human) = MAPK13 (human) (UniProt O15264)
MAPK14 (human) = MAPK14 (human) (UniProt Q16539)
MAPK15 (human) = MAPK15 (human) (UniProt Q8TD08)
Chain of MAPK15 (human) (Q8TD08 whole entry, looked up): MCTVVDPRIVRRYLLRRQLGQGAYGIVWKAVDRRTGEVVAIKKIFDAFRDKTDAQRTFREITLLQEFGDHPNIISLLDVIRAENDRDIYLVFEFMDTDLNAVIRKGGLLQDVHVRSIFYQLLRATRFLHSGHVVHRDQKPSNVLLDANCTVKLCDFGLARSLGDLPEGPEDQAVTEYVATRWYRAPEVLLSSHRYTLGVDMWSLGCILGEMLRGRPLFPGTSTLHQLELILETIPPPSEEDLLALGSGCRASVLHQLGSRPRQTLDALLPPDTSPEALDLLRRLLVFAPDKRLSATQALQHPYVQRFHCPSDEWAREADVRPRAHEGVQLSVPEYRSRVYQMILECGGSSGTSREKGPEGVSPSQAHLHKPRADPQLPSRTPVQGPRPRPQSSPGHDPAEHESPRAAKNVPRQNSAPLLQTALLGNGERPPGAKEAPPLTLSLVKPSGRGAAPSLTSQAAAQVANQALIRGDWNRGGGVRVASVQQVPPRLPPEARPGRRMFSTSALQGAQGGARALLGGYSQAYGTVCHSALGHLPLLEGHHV

MAPK3 (human) = MAPK3 (human) (UniProt P27361)
Chain of MAPK3 (human) (P27361 whole entry, looked up): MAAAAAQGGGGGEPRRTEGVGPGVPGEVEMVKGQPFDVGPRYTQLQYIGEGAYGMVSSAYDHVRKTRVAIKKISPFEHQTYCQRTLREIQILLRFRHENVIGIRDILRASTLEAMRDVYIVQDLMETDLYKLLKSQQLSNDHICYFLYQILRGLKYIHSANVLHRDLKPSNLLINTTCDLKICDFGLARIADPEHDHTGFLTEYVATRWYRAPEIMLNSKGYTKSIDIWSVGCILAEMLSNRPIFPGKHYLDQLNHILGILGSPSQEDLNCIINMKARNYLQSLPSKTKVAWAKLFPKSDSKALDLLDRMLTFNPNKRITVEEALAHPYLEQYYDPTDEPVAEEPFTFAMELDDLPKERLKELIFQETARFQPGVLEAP

MKNK1 (human) = MKNK1 (human) (UniProt Q9BUB5)
NEK2 (human) = NEK2 (human) (UniProt P51955)
Chain of NEK2 (human) (P51955 whole entry, looked up): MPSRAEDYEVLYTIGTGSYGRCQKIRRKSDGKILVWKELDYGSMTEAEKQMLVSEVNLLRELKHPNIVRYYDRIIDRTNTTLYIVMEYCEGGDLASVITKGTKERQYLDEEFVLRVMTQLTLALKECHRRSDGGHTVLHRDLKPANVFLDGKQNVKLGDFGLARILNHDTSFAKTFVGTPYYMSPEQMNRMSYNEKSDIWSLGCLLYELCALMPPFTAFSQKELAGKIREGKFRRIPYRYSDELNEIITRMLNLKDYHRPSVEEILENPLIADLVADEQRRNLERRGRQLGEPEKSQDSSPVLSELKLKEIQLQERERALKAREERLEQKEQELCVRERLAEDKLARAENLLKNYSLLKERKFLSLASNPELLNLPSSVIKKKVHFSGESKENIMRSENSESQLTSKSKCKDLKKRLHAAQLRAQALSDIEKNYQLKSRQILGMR

PAK6 (human) = PAK6 (human) (UniProt Q9NQU5)
Chain of PAK6 (human) (Q9NQU5 whole entry, looked up): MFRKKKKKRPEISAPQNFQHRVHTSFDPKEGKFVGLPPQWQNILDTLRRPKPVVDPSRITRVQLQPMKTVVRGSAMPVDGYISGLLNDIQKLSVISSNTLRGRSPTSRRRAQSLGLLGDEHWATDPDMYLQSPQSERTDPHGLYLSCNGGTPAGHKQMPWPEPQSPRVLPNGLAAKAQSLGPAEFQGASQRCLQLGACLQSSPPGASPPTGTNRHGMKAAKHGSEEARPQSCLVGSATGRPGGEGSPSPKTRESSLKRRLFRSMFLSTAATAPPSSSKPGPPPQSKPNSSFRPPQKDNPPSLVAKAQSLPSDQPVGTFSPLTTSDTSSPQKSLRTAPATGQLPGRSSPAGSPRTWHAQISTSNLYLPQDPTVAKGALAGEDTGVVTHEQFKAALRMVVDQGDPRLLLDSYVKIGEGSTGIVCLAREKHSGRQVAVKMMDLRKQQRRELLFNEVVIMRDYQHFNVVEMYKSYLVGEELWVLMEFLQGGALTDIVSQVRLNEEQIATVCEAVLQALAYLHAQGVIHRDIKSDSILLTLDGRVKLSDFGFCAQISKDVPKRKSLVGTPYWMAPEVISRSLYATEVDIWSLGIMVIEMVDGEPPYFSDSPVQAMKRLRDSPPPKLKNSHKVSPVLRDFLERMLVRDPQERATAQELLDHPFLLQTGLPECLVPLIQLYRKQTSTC

PAK7 (human) = PAK7 (human) (UniProt Q9P286)
Chain of PAK7 (human) (Q9P286 whole entry, looked up): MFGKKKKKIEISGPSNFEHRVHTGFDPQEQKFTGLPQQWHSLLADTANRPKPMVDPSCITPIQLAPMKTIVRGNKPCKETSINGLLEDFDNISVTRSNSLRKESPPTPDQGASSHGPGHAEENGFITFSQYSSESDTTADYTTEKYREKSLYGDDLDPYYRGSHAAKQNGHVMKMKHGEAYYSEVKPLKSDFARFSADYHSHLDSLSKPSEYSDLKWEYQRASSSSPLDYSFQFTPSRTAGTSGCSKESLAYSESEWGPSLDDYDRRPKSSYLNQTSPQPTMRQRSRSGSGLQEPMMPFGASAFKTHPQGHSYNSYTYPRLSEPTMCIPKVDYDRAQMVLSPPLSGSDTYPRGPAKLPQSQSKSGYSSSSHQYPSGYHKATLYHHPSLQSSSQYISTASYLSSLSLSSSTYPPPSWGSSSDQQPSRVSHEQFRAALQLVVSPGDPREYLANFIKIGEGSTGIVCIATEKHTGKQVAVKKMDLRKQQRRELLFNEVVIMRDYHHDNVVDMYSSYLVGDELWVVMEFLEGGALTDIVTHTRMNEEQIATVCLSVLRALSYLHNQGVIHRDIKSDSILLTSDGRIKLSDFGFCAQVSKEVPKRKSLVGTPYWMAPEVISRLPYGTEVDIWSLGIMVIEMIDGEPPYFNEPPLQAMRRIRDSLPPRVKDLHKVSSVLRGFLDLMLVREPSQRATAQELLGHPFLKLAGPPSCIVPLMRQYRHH

PHKG1 (human) = PHKG1 (human) (UniProt Q16816)
Chain of PHKG1 (human) (Q16816 whole entry, looked up): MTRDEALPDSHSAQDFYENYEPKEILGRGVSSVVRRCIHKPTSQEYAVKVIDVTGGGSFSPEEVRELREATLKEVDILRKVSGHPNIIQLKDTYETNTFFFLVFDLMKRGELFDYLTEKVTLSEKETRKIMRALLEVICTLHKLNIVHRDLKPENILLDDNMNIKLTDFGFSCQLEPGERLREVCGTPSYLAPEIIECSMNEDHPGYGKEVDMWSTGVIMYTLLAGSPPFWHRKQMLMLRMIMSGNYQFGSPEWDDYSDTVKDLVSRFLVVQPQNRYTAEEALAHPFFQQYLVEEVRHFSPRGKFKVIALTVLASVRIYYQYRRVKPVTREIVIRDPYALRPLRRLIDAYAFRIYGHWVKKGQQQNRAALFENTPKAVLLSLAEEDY

PIM2 (human) = PIM2 (human) (UniProt Q9P1W9)
PIM3 (human) = PIM3 (human) (UniProt Q86V86)
RPS6KA1 KD1 KD2 (human) = RPS6KA1 KD1 KD2 (human) (UniProt Q15418)
RPS6KA3 KD1 KD2 (human) = RPS6KA3 KD1 KD2 (human) (UniProt P51812)
RPS6KA5 KD1 KD2 (human) = RPS6KA5 KD1 KD2 (human) (UniProt O75582)
[1] = system: RPS6KB1 (human), P23443 [T412E]
Chain of RPS6KB1 (human), P23443 [T412E] (P23443 whole entry T412E, looked up): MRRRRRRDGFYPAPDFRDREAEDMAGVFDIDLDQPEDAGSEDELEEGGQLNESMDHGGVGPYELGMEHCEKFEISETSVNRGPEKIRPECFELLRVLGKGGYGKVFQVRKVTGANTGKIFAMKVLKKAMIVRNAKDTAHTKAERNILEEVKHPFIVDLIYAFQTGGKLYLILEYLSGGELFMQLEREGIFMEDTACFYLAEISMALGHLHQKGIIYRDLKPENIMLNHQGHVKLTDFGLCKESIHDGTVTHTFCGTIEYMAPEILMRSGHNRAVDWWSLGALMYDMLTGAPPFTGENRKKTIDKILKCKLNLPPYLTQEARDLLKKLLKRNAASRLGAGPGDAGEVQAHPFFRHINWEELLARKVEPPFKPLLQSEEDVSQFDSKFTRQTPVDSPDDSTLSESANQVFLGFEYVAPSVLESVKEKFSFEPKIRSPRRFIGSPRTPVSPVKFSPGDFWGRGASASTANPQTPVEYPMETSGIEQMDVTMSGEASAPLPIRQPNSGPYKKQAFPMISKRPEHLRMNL

[2] = system: SGK1 (human), O00141 [S422D]
Chain of SGK1 (human), O00141 [S422D] (O00141 whole entry S422D, looked up): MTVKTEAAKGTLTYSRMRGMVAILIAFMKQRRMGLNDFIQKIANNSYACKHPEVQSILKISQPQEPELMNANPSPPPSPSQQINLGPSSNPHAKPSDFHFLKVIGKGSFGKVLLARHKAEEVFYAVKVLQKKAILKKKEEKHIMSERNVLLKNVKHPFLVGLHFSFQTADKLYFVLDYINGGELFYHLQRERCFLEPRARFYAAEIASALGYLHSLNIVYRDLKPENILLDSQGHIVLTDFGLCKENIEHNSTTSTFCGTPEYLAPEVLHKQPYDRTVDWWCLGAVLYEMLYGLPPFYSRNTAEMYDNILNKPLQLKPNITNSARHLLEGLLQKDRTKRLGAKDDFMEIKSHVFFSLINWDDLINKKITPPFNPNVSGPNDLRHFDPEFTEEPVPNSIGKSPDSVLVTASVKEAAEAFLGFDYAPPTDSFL

SRC (human) = SRC (human) (UniProt P12931)
YES1 (human) = YES1 (human) (UniProt P07947)
PI4KA (human) = PI4KA (human) (UniProt P42356)
PI4KB (human) = PI4KB (human) (UniProt Q9UBF8)
PIK3C2A (human) = PIK3C2A (human) (UniProt O00443)
PIK3C2B (human) = PIK3C2B (human) (UniProt O00750)
PIK3C3 (human) = PIK3C3 (human) (UniProt Q8NEB9)

Chain of CSNK1D (human) (P48730 whole entry, looked up): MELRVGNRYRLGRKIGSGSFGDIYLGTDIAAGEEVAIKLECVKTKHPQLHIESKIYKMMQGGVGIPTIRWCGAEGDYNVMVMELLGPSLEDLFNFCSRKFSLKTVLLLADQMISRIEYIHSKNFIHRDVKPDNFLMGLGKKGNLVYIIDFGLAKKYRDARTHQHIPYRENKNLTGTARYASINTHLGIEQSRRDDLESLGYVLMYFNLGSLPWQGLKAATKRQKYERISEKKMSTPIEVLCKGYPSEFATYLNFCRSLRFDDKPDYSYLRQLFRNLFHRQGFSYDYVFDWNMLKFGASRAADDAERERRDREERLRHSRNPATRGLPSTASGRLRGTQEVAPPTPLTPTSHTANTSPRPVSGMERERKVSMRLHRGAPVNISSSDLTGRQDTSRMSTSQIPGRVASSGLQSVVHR

Q: What does the source list for `CCC(=O)N1CCN(c2ccc(-n3c(=O)ccc4cnc5ccc(-c6cnc7ccccc7c6)cc5c43)cc2C(F)(F)F)CC1`?
A: per cent of control (BRSK2 (human); compound 1.0 µM): 102%; per cent of control (BRSK2 (human); compound 10.0 µM): 104%; per cent of control (CSK (human); compound 1.0 µM): 101%; per cent of control (CSK (human); compound 10.0 µM): 83%; per cent of control (CSNK1D (human); compound 1.0 µM): 93%; per cent of control (CSNK1D (human); compound 10.0 µM): 104%; per cent of control (CSNK2A1 (human); compound 10.0 µM): 95%; per cent of control (CaMK1 (human); compound 1.0 µM): 104%; per cent of control (CaMK1 (human); compound 10.0 µM): 77%; per cent of control (DYRK1A (human); compound 1.0 µM): 92%; per cent of control (DYRK1A (human); compound 10.0 µM): 75%; per cent of control (EEF2K (human); compound 1.0 µM): 118%; per cent of control (EEF2K (human); compound 10.0 µM): 111%; per cent of control (EPHA2 (human); compound 1.0 µM): 120%; per cent of control (EPHA2 (human); compound 10.0 µM): 87%; per cent of control (INSRR (human); compound 10.0 µM): 73%; per cent of control (LCK (mouse); compound 1.0 µM): 93%; per cent of control (LCK (mouse); compound 10.0 µM): 78%; per cent of control (MAPK1 (human); compound 1.0 µM): 102%; per cent of control (MAPK1 (human); compound 10.0 µM): 90%; per cent of control (MAPK13 (human); compound 1.0 µM): 106%; per cent of control (MAPK13 (human); compound 10.0 µM): 97%; per cent of control (MAPK14 (human); compound 1.0 µM): 95%; per cent of control (MAPK14 (human); compound 10.0 µM): 99%; per cent of control (MAPK15 (human); compound 1.0 µM): 78%; per cent of control (MAPK15 (human); compound 10.0 µM): 46%; per cent of control (MAPK3 (human); compound 1.0 µM): 99%; per cent of control (MAPK3 (human); compound 10.0 µM): 96%; per cent of control (MKNK1 (human); compound 1.0 µM): 93%; per cent of control (MKNK1 (human); compound 10.0 µM): 96%; per cent of control (NEK2 (human); compound 1.0 µM): 88%; per cent of control (NEK2 (human); compound 10.0 µM): 99%; per cent of control (PAK6 (human); compound 1.0 µM): 110%; per cent of control (PAK6 (human); compound 10.0 µM): 80%; per cent of control (PAK7 (human); compound 10.0 µM): 61%; per cent of control (PHKG1 (human); compound 1.0 µM): 110%; per cent of control (PHKG1 (human); compound 10.0 µM): 99%; per cent of control (PIM2 (human); compound 1.0 µM): 86%; per cent of control (PIM2 (human); compound 10.0 µM): 96%; per cent of control (PIM3 (human); compound 1.0 µM): 85%; per cent of control (PIM3 (human); compound 10.0 µM): 30%; per cent of control (RPS6KA1 KD1 KD2 (human); compound 1.0 µM): 93%; per cent of control (RPS6KA1 KD1 KD2 (human); compound 10.0 µM): 71%; per cent of control (RPS6KA3 KD1 KD2 (human); compound 1.0 µM): 96%; per cent of control (RPS6KA3 KD1 KD2 (human); compound 10.0 µM): 81%; per cent of control (RPS6KA5 KD1 KD2 (human); compound 1.0 µM): 86%; per cent of control ([1]; compound 1.0 µM): 97%; per cent of control ([1]; compound 10.0 µM): 81%; per cent of control ([2]; compound 1.0 µM): 79%; per cent of control ([2]; compound 10.0 µM): 60%; per cent of control (SRC (human); compound 1.0 µM): 60%; per cent of control (SRC (human); compound 10.0 µM): 52%; per cent of control (YES1 (human); compound 1.0 µM): 113%; per cent of control (YES1 (human); compound 10.0 µM): 78%; IC50 (PI4KA (human)): > 10000 nM

Q: Which per cent of control (BRSK2 (human); compound 1.0 µM) does the source give for `CC(C)n1nc(-c2cc3cc(O)ccc3[nH]2)c2c(N)ncnc21` here?
A: The per cent of control was 26%.

Q: And the per cent of control (BRSK2 (human); compound 10.0 µM)?
A: The per cent of control was 4%.

Q: And the per cent of control (CSK (human); compound 1.0 µM)?
A: Its per cent of control is 52%.

Q: What about the per cent of control (CSK (human); compound 10.0 µM) of the same molecule?
A: Its per cent of control is 34%.

Q: And the per cent of control (CSNK1D (human); compound 1.0 µM)?
A: The per cent of control was 50%.

Q: And the per cent of control (CSNK1D (human); compound 10.0 µM)?
A: Its per cent of control is 9%.

Q: And the per cent of control (CSNK2A1 (human); compound 1.0 µM)?
A: The per cent of control was 72%.

Q: And the per cent of control (CSNK2A1 (human); compound 10.0 µM)?
A: Its per cent of control is 40%.

Q: And the per cent of control (CaMK1 (human); compound 1.0 µM)?
A: Its per cent of control is 80%.

Q: And the per cent of control (CaMK1 (human); compound 10.0 µM)?
A: The per cent of control was 33%.

Q: What about the per cent of control (DYRK1A (human); compound 1.0 µM) of the same molecule?
A: The per cent of control was 84%.

Q: And the per cent of control (DYRK1A (human); compound 10.0 µM)?
A: The per cent of control was 55%.

Q: And the per cent of control (EEF2K (human); compound 1.0 µM)?
A: The per cent of control was 115%.

Q: What about the per cent of control (EEF2K (human); compound 10.0 µM) of the same molecule?
A: Its per cent of control is 106%.

Q: What about the per cent of control (EPHA2 (human); compound 1.0 µM) of the same molecule?
A: The per cent of control was 12%.

Q: What about the per cent of control (EPHA2 (human); compound 10.0 µM) of the same molecule?
A: Its per cent of control is 3%.

Q: And the per cent of control (INSRR (human); compound 1.0 µM)?
A: Its per cent of control is 47%.

Q: And the per cent of control (INSRR (human); compound 10.0 µM)?
A: The per cent of control was 29%.

Q: What about the per cent of control (LCK (mouse); compound 1.0 µM) of the same molecule?
A: The per cent of control was 13%.

Q: And the per cent of control (LCK (mouse); compound 10.0 µM)?
A: Its per cent of control is 4%.

Q: And the per cent of control (MAPK1 (human); compound 1.0 µM)?
A: The per cent of control was 106%.

Q: And the per cent of control (MAPK1 (human); compound 10.0 µM)?
A: Its per cent of control is 88%.

Q: And the per cent of control (MAPK13 (human); compound 1.0 µM)?
A: Its per cent of control is 97%.

Q: What about the per cent of control (MAPK13 (human); compound 10.0 µM) of the same molecule?
A: Its per cent of control is 73%.

Q: And the per cent of control (MAPK14 (human); compound 1.0 µM)?
A: Its per cent of control is 95%.

Q: What about the per cent of control (MAPK14 (human); compound 10.0 µM) of the same molecule?
A: The per cent of control was 90%.

Q: And the per cent of control (MAPK15 (human); compound 1.0 µM)?
A: Its per cent of control is 50%.

Q: And the per cent of control (MAPK15 (human); compound 10.0 µM)?
A: Its per cent of control is 6%.

Q: What about the per cent of control (MAPK3 (human); compound 1.0 µM) of the same molecule?
A: Its per cent of control is 88%.

Q: What about the per cent of control (MAPK3 (human); compound 10.0 µM) of the same molecule?
A: The per cent of control was 81%.

Q: And the per cent of control (MKNK1 (human); compound 1.0 µM)?
A: The per cent of control was 51%.

Q: And the per cent of control (MKNK1 (human); compound 10.0 µM)?
A: Its per cent of control is 12%.

Q: What about the per cent of control (NEK2 (human); compound 1.0 µM) of the same molecule?
A: Its per cent of control is 86%.

Q: What about the per cent of control (NEK2 (human); compound 10.0 µM) of the same molecule?
A: Its per cent of control is 54%.

Q: And the per cent of control (PAK6 (human); compound 1.0 µM)?
A: Its per cent of control is 80%.

Q: And the per cent of control (PAK6 (human); compound 10.0 µM)?
A: The per cent of control was 38%.

Q: And the per cent of control (PAK7 (human); compound 1.0 µM)?
A: Its per cent of control is 69%.

Q: And the per cent of control (PAK7 (human); compound 10.0 µM)?
A: The per cent of control was 34%.

Q: And the per cent of control (PHKG1 (human); compound 1.0 µM)?
A: Its per cent of control is 72%.

Q: What about the per cent of control (PHKG1 (human); compound 10.0 µM) of the same molecule?
A: The per cent of control was 25%.

Q: And the per cent of control (PIM2 (human); compound 1.0 µM)?
A: Its per cent of control is 110%.

Q: And the per cent of control (PIM2 (human); compound 10.0 µM)?
A: Its per cent of control is 36%.

Q: What about the per cent of control (PIM3 (human); compound 1.0 µM) of the same molecule?
A: Its per cent of control is 59%.

Q: And the per cent of control (PIM3 (human); compound 10.0 µM)?
A: Its per cent of control is 13%.

Q: And the per cent of control (RPS6KA1 KD1 KD2 (human); compound 1.0 µM)?
A: Its per cent of control is 53%.

Q: What about the per cent of control (RPS6KA1 KD1 KD2 (human); compound 10.0 µM) of the same molecule?
A: Its per cent of control is 19%.

Q: What about the per cent of control (RPS6KA3 KD1 KD2 (human); compound 1.0 µM) of the same molecule?
A: The per cent of control was 63%.

Q: What about the per cent of control (RPS6KA3 KD1 KD2 (human); compound 10.0 µM) of the same molecule?
A: The per cent of control was 16%.

Q: And the per cent of control (RPS6KA5 KD1 KD2 (human); compound 1.0 µM)?
A: The per cent of control was 105%.

Q: And the per cent of control (RPS6KA5 KD1 KD2 (human); compound 10.0 µM)?
A: The per cent of control was 49%.

Q: What about the per cent of control ([1]; compound 1.0 µM) of the same molecule?
A: The per cent of control was 80%.

Q: And the per cent of control ([1]; compound 10.0 µM)?
A: Its per cent of control is 50%.

Q: What about the per cent of control ([2]; compound 1.0 µM) of the same molecule?
A: The per cent of control was 85%.

Q: And the per cent of control ([2]; compound 10.0 µM)?
A: Its per cent of control is 69%.

Q: What about the per cent of control (YES1 (human); compound 1.0 µM) of the same molecule?
A: Its per cent of control is -2%.

Q: And the per cent of control (YES1 (human); compound 10.0 µM)?
A: Its per cent of control is -8%.

Q: What about the IC50 (PI4KA (human)) of the same molecule?
A: The IC50 was > 10000 nM.

Q: What about the IC50 (PI4KB (human)) of the same molecule?
A: Its IC50 is 2130 nM.

Q: And the IC50 (PIK3C2A (human))?
A: Its IC50 is 866 nM.

Q: What about the IC50 (PIK3C2B (human)) of the same molecule?
A: Its IC50 is 82.9 nM.

Q: What about the IC50 (PIK3C3 (human)) of the same molecule?
A: The IC50 was > 10000 nM.
